Data from BindingDB's records for doi:10.7270/Q2BR8QM3 (Nmmlsc, 2008).

Target: T1, Bcl-2-like protein 2 (Homo sapiens, UniProt Q92843)
T1 sequence (Q92843 whole entry): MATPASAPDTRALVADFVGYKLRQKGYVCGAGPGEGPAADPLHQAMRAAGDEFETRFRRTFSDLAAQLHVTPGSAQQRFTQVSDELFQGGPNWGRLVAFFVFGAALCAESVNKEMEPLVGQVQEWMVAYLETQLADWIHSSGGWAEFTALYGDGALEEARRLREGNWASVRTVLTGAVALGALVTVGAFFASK
Test: modulators of Bim-Bcl-W protein interaction, dose response, biochemical, multiplexed, bead-based flow cytometry, fluorescence (AID 1330)

[1] = inactive by the depositor's call

EC50 [1] | EC50 | Structure (SMILES)
0.67 µM | – | COc1cc2nc(=S)[nH]c(NCCc3ccc(S(N)(=O)=O)cc3)c2cc1OC [MLS000674601]
24.2 µM | – | COc1ccc(C)cc1-n1c(=O)c2ccccc2c2ccccc2c1=O [MLS000682999]
9.76 µM | – | Fc1ccc(C2=Nc3cccc4cccc(c34)N2)cc1 [MLS000687139]
– | 16.6 µM | OCCN1CCN(CCCc2c3c(cc4c2CCC4)CCC3)CC1 [MLS000698424]
27.5 µM | – | COc1ccc(/C=C/C(=O)c2cc(Br)ccc(=O)c2O)cc1 [MLS000702099]
6.14 µM | – | CCOC(=O)c1c(O)nc2ccc(Cl)c3c2c1-c1ccccc1C3=O [MLS000704595]
27.9 µM | – | Cc1ccc(/C=C/C(=O)c2ccccc(=O)c2O)cc1C [MLS000756172]
– | 55.2 µM | COc1cccc2c(SCC(=O)NN=Cc3ccc(O)cc3O)cc(C)nc12 [N'-[(E)-(2-hydroxy-4-oxo-1-cyclohexa-2,5-dienylidene)methyl]-2-[(8-methoxy-2-methyl-4-quinolinyl)thio]acetohydrazide]
– | 2.58 µM | c1ccc(Nc2cccc(Nc3ccccc3)n2)cc1 [N,N'-diphenyl-2,6-pyridinediamine]
– | 15.3 µM | COc1cc(C=NNC(=O)CN(Cc2ccco2)S(=O)(=O)c2ccccc2)ccc1O [N-(2-furanylmethyl)-N-[2-[[(E)-(3-methoxy-4-oxo-1-cyclohexa-2,5-dienylidene)methyl]hydrazo]-2-oxoethyl]benzenesulfonamide]
3.97 µM | – | CC(=O)c1ccc(NC(=O)c2ccc3nc(-c4ccco4)c(-c4ccco4)nc3c2)cc1 [N-(4-acetylphenyl)-2,3-di-2-furyl-6-quinoxalinecarboxamide]
– | 2.43 µM | COc1cccc(CN=Nc2nn3cnnc3c3ccccc23)c1 [N-[1-(3-Methoxy-phenyl)-meth-(E)-ylidene]-N'-[1,2,4]triazolo[3,4-a]phthalazin-6-yl-hydrazine]
12.2 µM | – | COc1ccc(CCNC(=O)c2ccc3nc(-c4ccco4)c(-c4ccco4)nc3c2)cc1OC [N-[2-(3,4-dimethoxyphenyl)ethyl]-2,3-di-2-furylquinoxaline-6-carboxamide]
4 µM | – | COc1ccccc1NC1=C(NC(C)=O)C(=O)c2ccccc2C1=O [N-[3-(2-methoxyanilino)-1,4-dioxonaphthalen-2-yl]acetamide]
3.49 µM | – | CC(=O)NC1=C(NC2CCS(=O)(=O)C2)C(=O)c2ccccc2C1=O (centres undefined) [N-[3-[(1,1-dioxothiolan-3-yl)amino]-1,4-dioxonaphthalen-2-yl]acetamide]
41.3 µM | – | Cc1cccc(C(=O)/N=c2\c(C#N)cc3c(=O)n4cccc(C)c4nc3n2Cc2ccco2)c1 [N-[3-cyano-1-(furan-2-ylmethyl)-10-methyl-5-oxodipyrido[3,4-c:1',2'-f]pyrimidin-2-ylidene]-3-methylbenzamide]
3.72 µM | – | COc1cc(CNc2ccc(N3CCCC3)cc2)cc(Cl)c1OC [N-[(3-chloranyl-4,5-dimethoxy-phenyl)methyl]-4-pyrrolidin-1-yl-aniline]
– | 0.92 µM | CCC(=O)N(CC)C1C(=O)C(=O)c2ccccc2C1=O (centres undefined) [N-ethyl-N-(1-hydroxy-3,4-dioxo-2-naphthalenyl)propanamide]
16.6 µM | – | Cc1ccc(C=NN(C)C2=NS(=O)(=O)c3ccccc32)o1 [N-methyl-N-[(5-methyl-2-furanyl)methylideneamino]-1,1-dioxo-1,2-benzothiazol-3-amine]
6.29 µM | – | CC(C)(C)NC(=O)COc1ccc(CNc2ccc3[nH]c(O)nc3c2)cc1 [N-tert-butyl-2-[4-[[(2-oxidanylidene-1,3-dihydrobenzimidazol-5-yl)amino]methyl]phenoxy]ethanamide]
3.68 µM | – | COCCCNc1nc(S)nc2cc(OC)c(OC)cc12 [SMR000026607]
– | 1.11 µM | O=C1c2ccccc2-c2onc3ccc(NCCCn4ccnc4)c1c23 [SMR000044769]
29.6 µM | – | CSc1nnc2c3cc(C)ccc3n(Cc3ccccc3)c2n1 [SMR000046397]
21.7 µM | – | c1ccc(-c2nc(N3CCCCCC3)c3ccccc3n2)nc1 [SMR000046752]
31.8 µM | – | Nc1c(C(=O)NCc2ccco2)sc2nc3c(cc12)C(=O)CCC3 [SMR000072940]

EC50 [1] | EC50 | Structure (SMILES)
16.4 µM | – | O=C(Nc1ccc2nc(-c3ccco3)c(-c3ccco3)nc2c1)NC1CC1 [SMR000118524]
11.2 µM | – | O=C(NCCO)c1ccc2nc(-c3ccco3)c(-c3ccco3)nc2c1 [SMR000121771]
– | 9.02 µM | O=C(Nc1cccc(C(F)(F)F)c1)c1ccc2nc(-c3ccco3)c(-c3ccco3)nc2c1 [SMR000142217]
1.31 µM | – | COC(=O)c1c(C(=O)OC)c2cccc3cc(-c4ccccc4)c4ccc1c4n32 [SMR000161417]
– | 4.15 µM | O=c1[nH]c2ccc(N=Cc3c(O)ccc4cc(Br)ccc34)cc2[nH]1 [SMR000171789]
15.7 µM | – | Nc1ccc(C2=Nc3cccc4cccc(c34)N2)cc1 [SMR000175908]
– | 9.02 µM | C#CCn1cc(C=C2C(=O)c3ccccc3C2=O)c2ccccc21 [SMR000196125]
17.3 µM | – | CN(N=Cc1cccnc1)C1=NS(=O)(=O)c2ccccc21 [SMR000207578]
– | 42.4 µM | CNCc1ccccc1Sc1ccc(O)c(O)c1 [SMR000230497]
2.98 µM | – | Oc1ccc(NCc2ccccc2OCc2ccccc2)cc1 [SMR000231540]
18 µM | – | COc1ccc(OC)c(-n2c(=O)c3ccccc3c3ccccc3c2=O)c1 [SMR000236434]
– | 5.05 µM | CN=c1scc(-c2cccs2)n1N=Cc1ccc(O)c(O)c1O [SMR000242177]
– | 2.36 µM | Nc1c(C(=O)NCC2CCCO2)sc2nc3c(c(-c4ccco4)c12)CC/C3=C\c1ccco1 (centres undefined) [SMR000259502]
– | 2.6 µM | Nc1c(C(=O)NC2CC2)sc2nc3c(c(-c4ccco4)c12)CC/C3=C/c1ccco1 [SMR000259554]
10.9 µM | – | O=C1c2ccccc2-c2onc3ccc(N4CCCC4)c1c23 [SMR000279741]
25.7 µM | – | COc1cc(OC)c([N+](=O)[O-])cc1[CH+][N-]NC(=O)c1ccncc1 [SMR000306621]
– | 4.03 µM | CC(=NNC(=O)c1cc(O)c(O)c(O)c1)c1ccc([N+](=O)[O-])cc1 [SMR000312589]
11.1 µM | – | O=C(CSc1ccc2nnc(-c3ccncc3)n2n1)Nc1nccs1 [SMR000320332]
– | 7.89 µM | Cc1nnc2ccc(-c3cccc(NC(=O)c4ccco4)c3)nn12 [SMR000324305]
1.59 µM | – | O=C(Nc1cccc(Cl)c1)Nc1ccnc(-c2cccnc2)n1 [SMR000337179]
– | 37.5 µM | CCN1/C(=C/C(C)=C/c2sc3ccccc3[n+]2CC)Sc2ccccc21 [SMR000354813]
15.7 µM | – | Cc1ccnc(Nc2nc(-c3c(C)nc4sccn34)cs2)c1 [[4-(6-Methyl-imidazo[2,1-b]thiazol-5-yl)-thiazol-2-yl]-(4-methyl-pyridin-2-yl)-amine]
16.7 µM | – | CCOC(=O)c1nc(Nc2ccc(C(=O)OC)cc2)c2ccccc2n1 [ethyl 4-(4-methoxycarbonylanilino)quinazoline-2-carboxylate]
2.73 µM | – | CN(N=Cc1ccncc1)C1=NS(=O)(=O)c2ccccc21 [isonicotinaldehyde (1,1-dioxido-1,2-benzisothiazol-3-yl)(methyl)hydrazone]
